Reference: patent US20240245677A1, “SELECTED COMPOUNDS FOR TARGETED DEGRADATION OF BRD9” (C4 THERAPEUTICS, INC., priority 2021, published 2024)
≈ marks a conversion by molar mass, not a printed value.

Tests used:
[1] = Rat Hepatocyte Stability Assay; type: in vitro ADME; details: Sprague-Dawley, cryopreserved hepatocytes
Procedure: (§1) The metabolic stability of Compound 1 was evaluated using cryopreserved hepatocytes from mice, rats, dogs, cynomolgus monkeys, and humans.
(§2) 50 μL of 1 mM intermediate solutions for each test compound was prepared by adding 5 μL of 10 mM stock solution to 45 μL of a 1:1 mixture of water and acetonitrile. A 2 μM working stocks for each test compound were prepared in incubation media, InvitroGRO™ KHB (Bio IVT, Westbury, NY, USA), by adding 2 μL of 1 mM intermediate stock to 998 μL of incubation media.
(§3) To thaw the hepatocytes, InvitroGRO™ HT thawing medium (BioIVT, Westbury, NY, USA) was prewarmed to 37° C., and 48 mL of warmed thawing medium was transferred to a sterile 50 mL conical tube. The hepatocyte vial was removed from the liquid nitrogen Dewar, and gently thawed in a water bath at 37° C. for 1-2 minutes, then the contents of the vial were emptied into a conical tube with prewarmed InvitroGRO HT medium. 1 mL of prewarmed InvitroGRO HT medium was added to each emptied hepatocyte vial to resuspend any remaining cells, and the contents were pipetted into the hepatocyte suspension. The tube containing the hepatocyte suspension was centrifuged at 50*g for 5 minutes. The supernatant was removed carefully, and the remaining pellet was resuspended by adding 1 mL of incubation media, InvitroGRO KHB, and gently shaking until there were no clumps.
(§4) Cell viability was determined using the trypan blue method. 25 μL of hepatocyte cell suspension was added to a trypan blue (TB) solution (containing 775 μL InvitroGRO KHB and 200 μL of Trypan Blue). Cell count was taken using a hemacytometer.
(§5) For mouse hepatocytes, 200 μL of hepatocytes (0.8×10^6 cells/mL) were added to the wells of a 48 well plate (Catalog No. 92048, TPP Techno Plastic Products AG, Trasadingen, Switzerland) and pre-incubated for 30 minutes at 37° C. For rat, dog, monkey, […], 200 μL of hepatocytes (2×10^6 cells/mL) were added to the wells of a 48 well plate (Catalog No. 92048, TPP Techno Plastic Products AG, Trasadingen, Switzerland) and pre-incubated for 30 minutes at 37° C.
(§6) For all species of hepatocytes, once the pre-incubation period was complete, 200 μL of 2 μM working stock of test compound was added to the wells of the plate, and the plate was vortexed on a Vibramax™ 100 (P/N 544-21200-00, Heidolph Instruments GmbH & Co. KG, Schwabach, Germany) at 500 rpm in a 37° C. CO2 incubator (Model No. 51026280, ThermoFisher Scientific, Waltham, MA, USA). At each time point of 0, 15, 30, 60, 90, and 120 minutes, 50 μL of incubation mixture was precipitated with 200 μL of acetonitrile containing internal standard.
(§7) At the end of the experiment, the samples were centrifuged at 4000 rpm for 10 minutes. […]

[2] = tested on: cryopreserved hepatocytes from Sprague-Dawley rats; assay: Rat Hepatocyte Stability Assay; type: in vitro ADME
Procedure: as §1, §2, §3, §4, §5, §6, §7

G402 tumor xenografts = assay: Antitumor activity in G402 malignant rhabdoid tumor xenograft model; type: in vivo, mouse; details: for TGI: day 21
Procedure: To evaluate the efficacy potential of Compound 1 in the malignant rhabdoid tumor setting, BALB/c nude female mice bearing G402 tumor xenografts (WuXi AppTec, Shanghai, China) were treated with a daily regimen of escalating doses of Compound 1 (10 mg/kg, 30 mg/kg, or 50 mg/kg) or vehicle via oral gavage for 21 days (FIG. 3). Compound 1 was tolerated in this study with all mice except two losing no greater than 8% body weight (FIG. 4). […] One mouse in the 50 mg/kg QD group also experienced accumulating body weight loss to end the study at −17.3% but was never taken off study. […] TGI and One-way ANOVA analyses were performed on day 21, the last day all animals were on study.
The G402 tumor cells were maintained in vitro in McCoy's 5a medium supplemented with 10% fetal bovine serum and 1% Penicillin-Streptomycin at 37° C. in an atmosphere of 5% CO2 in air. The tumor cells were routinely subcultured twice weekly. The cells growing in an exponential growth phase were harvested and counted for tumor inoculation.
Each mouse was inoculated subcutaneously at the right flank with G402 cells (10×10^6) in 0.2 mL of PBS supplemented with Matrigel (PBS:Matrigel=1:1) for tumor development. For efficacy part, the treatments were started when the average tumor volume reaches 175 mm^3.

[3] = Approximate solubility in solvents at 25° C. and 50° C. (visual observation); type: physicochemical; details: thermodynamic from solid, 25° C., target conc. = 250 mg/mL
Procedure: Max. volume of each solvent added was 1 mL. Approximate solubility was determined by visual observation.
Max volume of each solvent added was 1 mL. Approximate solubility was determined by visual observation.

[4] = Crystallization from hot saturated solutions by fast cooling; type: physicochemical; details: for Comments / XRPD: hot saturated solution
Procedure: Samples with no precipitates were put in −20° C. freezer for crystallization. Precipitates were collected by filtration. The solid part (wet cake) were investigated by XRPD.

COc1cc(-c2cn(C)c(=O)c(C)c2C)cc(OC)c1CN1CC[C@H](N2CCN(c3ccc(N[C@H]4CCC(=O)NC4=O)cc3F)CC2)C(F)(F)C1 [Compound 1, (S)-3-((4-(4-((S)-1-(2,6-dimethoxy-4-(1,4,5-trimethyl-6-oxo-1,6-dihydropyridin-3-yl)benzyl)-3,3-difluoropiperidin-4-yl)piperazin-1-yl)-3-fluorophenyl)amino)-piperidine-2,6-dione]
half-life at 1 µM [1]: > 2 h | hepatocyte CLint at 1 µM ([1]; read-out: CL int cells): 3.7 µL/min/1e6 cells | CLh int in vivo [2]: 17.76 mL/min/Kg body wt. | CLhb scaled well stirred [2]: 14.2 mL/min/kg body wt. | body weight loss, one mouse (G402 tumor xenografts; 10 mg/kg QD group): over 15% | TGI (G402 tumor xenografts; 30 mg/kg/day oral): 73% | body weight change at end of study, one mouse (G402 tumor xenografts; 50 mg/kg QD group): −17.3% | TGI (G402 tumor xenografts; 50 mg/kg/day oral): 78% | body weight loss, all mice except two (G402 tumor xenografts; 10, 30 or 50 mg/kg daily for 21 days): ≤ 8% | Solubility ([3]; organic solvent or mixture, Acetone): 17000 to 25000 µg/mL (≈ 23.9 to 35.2 mM) | Solubility ([3]; organic solvent or mixture, Acetonitrile): 6000 to 7000 µg/mL (≈ 8.44 to 9.85 mM) | Solubility ([3]; organic solvent or mixture, Ethanol): 5000 to 6000 µg/mL (≈ 7.03 to 8.44 mM) | Solubility ([3]; organic solvent or mixture, Ethyl acetate): 5000 to 6000 µg/mL (≈ 7.03 to 8.44 mM) | Solubility ([3]; organic solvent or mixture, Heptane): < 5000 µg/mL | Solubility ([3]; organic solvent or mixture, MTBE (Methyl tert-butyl ether)): < 5000 µg/mL | Solubility ([3]; organic solvent or mixture, Methanol): 10000 to 17000 µg/mL (≈ 14.1 to 23.9 mM) | Solubility ([3]; organic solvent or mixture, Methanol/water (v:v = 95:5)): 8000 to 13000 µg/mL (≈ 11.3 to 18.3 mM) | Solubility ([3]; organic solvent or mixture, THF (Tetrahydrofuran)): > 250000 µg/mL | Solubility ([3]; Water): < 5000 µg/mL | Comments: form after seeding ([4]; 2-MeTHF, add Pattern G as seeds, slurry for 5 days): Pattern G | Comments ([4]; 2-MeTHF): Clear solution | XRPD ([4]; Acetone): Pattern B | XRPD ([4]; Ethanol): Pattern F | XRPD ([4]; Ethyl acetate): Pattern F | Comments ([4]; Methanol): Clear solution
